Experimental data taken from patent US20260158017A1, “KIF18A INHIBITOR” (WIGEN BIOMEDICINE TECHNOLOGY (SHANGHAI) CO., LTD., priority 2021, published 2026).

Experiments:
[1] = molecular target: T1, Recombinant human KIF18A (1-467His-tagged) protein (Homo sapiens, UniProt Q8NI77); assay: KIF18A enzyme assay (microtubule-stimulated ATPase activity, ADP-Glo); type: biochemical; settings: 30 nM KIF18A, 75 μM ATP, 30 μg/mL pig microtubules; read-out: Inhibitory activity against KIF18A IC50
T1 construct: Recombinant human KIF18A (1-467His-tagged) protein; His; made in house
T1 sequence (Q8NI77 1-467): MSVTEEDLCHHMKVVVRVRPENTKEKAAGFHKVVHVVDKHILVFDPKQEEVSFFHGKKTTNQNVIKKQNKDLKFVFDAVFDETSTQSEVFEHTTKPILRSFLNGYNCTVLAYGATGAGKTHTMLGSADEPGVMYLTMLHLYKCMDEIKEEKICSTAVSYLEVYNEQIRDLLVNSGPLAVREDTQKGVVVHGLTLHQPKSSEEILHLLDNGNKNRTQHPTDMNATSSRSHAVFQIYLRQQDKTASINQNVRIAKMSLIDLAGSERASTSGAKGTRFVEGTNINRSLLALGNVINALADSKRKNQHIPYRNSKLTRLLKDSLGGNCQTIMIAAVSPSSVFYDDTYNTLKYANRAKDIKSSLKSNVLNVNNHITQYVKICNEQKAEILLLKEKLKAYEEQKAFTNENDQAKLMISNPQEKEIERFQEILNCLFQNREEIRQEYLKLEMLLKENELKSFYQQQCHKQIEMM
T1 sequence (P02550 whole entry partner): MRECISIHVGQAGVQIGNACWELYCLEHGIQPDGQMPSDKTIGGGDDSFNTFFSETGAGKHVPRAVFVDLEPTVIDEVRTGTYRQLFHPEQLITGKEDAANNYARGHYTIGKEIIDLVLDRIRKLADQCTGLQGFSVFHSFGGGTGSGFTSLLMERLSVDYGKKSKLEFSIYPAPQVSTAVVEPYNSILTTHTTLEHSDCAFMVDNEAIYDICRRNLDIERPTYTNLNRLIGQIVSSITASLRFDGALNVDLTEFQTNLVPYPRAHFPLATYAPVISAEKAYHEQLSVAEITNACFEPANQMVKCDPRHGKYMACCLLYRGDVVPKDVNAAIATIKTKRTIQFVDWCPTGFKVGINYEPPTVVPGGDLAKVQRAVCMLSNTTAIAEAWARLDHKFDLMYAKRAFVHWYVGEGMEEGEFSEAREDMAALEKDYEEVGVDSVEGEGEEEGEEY
T1 sequence (P02554 whole entry partner): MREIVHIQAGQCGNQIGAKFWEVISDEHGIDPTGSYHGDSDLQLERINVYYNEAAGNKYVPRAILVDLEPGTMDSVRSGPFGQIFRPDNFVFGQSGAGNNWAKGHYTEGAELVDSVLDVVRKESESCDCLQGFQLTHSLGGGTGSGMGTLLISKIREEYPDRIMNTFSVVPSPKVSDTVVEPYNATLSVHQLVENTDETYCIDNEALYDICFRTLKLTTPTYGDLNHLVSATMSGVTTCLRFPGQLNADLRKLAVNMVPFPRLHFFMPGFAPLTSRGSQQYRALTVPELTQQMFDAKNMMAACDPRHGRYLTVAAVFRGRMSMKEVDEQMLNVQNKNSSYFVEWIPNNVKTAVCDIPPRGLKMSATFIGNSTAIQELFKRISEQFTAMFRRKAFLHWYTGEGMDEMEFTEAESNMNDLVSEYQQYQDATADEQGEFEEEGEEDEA
How it was run: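 Buffer 15 mM Tris pH 7.5, 10 mM MgCl2, 0.01% Pluronic F-68, 1 μM paclitaxel, 30 μg/mL pig microtubules; reactions at room temperature. IC50 from inhibition relative to DMSO.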

[2] = tested on: Histone H3 Ser10 sites in HT29 cells; assay: Phosphorylation assay of histone H3 Ser10 sites in HT29 cells (immunofluorescence assay); type: cell-based; settings: Homo sapiens, HT-29, 6 h after addition, FITC/DAPI ratio
Experimental: Biological Example 5. Phosphorylation Assay of Histone H3 Ser10 Sites in HT29 Cells (Immunofluorescence Assay)
HT29 cells were seeded in a 96-well plate (Fisher 160376) at 8000 cells/well. The next day, the serially diluted compounds were added. 6 h after the addition of the compounds, the cells were washed once with 1×PBS, immobilized with 4% PFA for 15 min, further washed three times with 1×PBS, and permeabilized with 0.02% Triton-X100 for 10 min. A blocking buffer was then added for blocking for 15-30 min, and 1:3000-diluted primary antibodies (Phospho-Histone H3 (Ser10) (D7N8E) XP® Rabbit mAb #53348) were added. The plate was placed at 4° C. overnight. The next day, the cells were washed three times with 1×PBS, and 1:1000-diluted secondary antibodies (Fluorescein (FITC)-conjugated Affinipure Goat Anti-Rabbit IgG (H+L)) were added. The cells were incubated in the dark for 1-2 h and washed three times with 1×PBS. The nuclei were stained with DAPI, and after the staining was completed, photographs were taken using an MD ImageXpress Pico personal high-content imaging analysis system. The ratio of phosphorylation (FITC/DAPI) at H3 Ser10 sites in HT29 cells was quantified. To evaluate the effects of the compounds on the mitosis phase of HT29 cells, the EC50 values of the compounds were calculated.

[3] = tested on: HCT116 cells; assay: In vitro anti-proliferative activity against HCT116 cells (intracellular ATP content, 72 h); type: cell-based; settings: Homo sapiens, HCT-116, 72 h after dosing
Experimental: Biological Example 3. In Vitro Anti-Proliferative Activity of the Compounds of the Present Invention Against HCT116 Cells
(§1) HCT116 cells were seeded on a 384-well plate at 3000 cells/well. After overnight adherence culture, DMSO or the compounds serially 1:5-diluted from 5 μM were added. The viability of the cells was assessed 72 h after dosing by measuring the intracellular ATP content. The inhibition percentages of viable cells by the compounds were calculated by comparing with the DMSO group, and the IC 50 values were also calculated.

[4] = tested on: HT-29 cells; assay: In vitro anti-proliferative activity against HT-29 cells (intracellular ATP content, 72 h); type: cell-based; settings: Homo sapiens, 72 h after dosing
Experimental: Biological Example 2. In Vitro Anti-Proliferative Activity of the Compounds of the Present Invention Against HT-29 Cells
as §1, with “HT-29” for “HCT116”, “IC50” for “IC 50”

[5] = tested on: HT29 subcutaneous xenograft tumor; assay: In vivo pharmacodynamic study, mouse HT29 subcutaneous xenograft tumor model; design: species or system BALB/c nude mice; settings: for Tumor volume on day 1 of treatment / Tumor volume on day 28 of treatment / TGI (tumor growth inhibition): 80 mg/kg intragastric once daily; for Tumor volume on day 1 of treatment: baseline day 1; for TGI (tumor growth inhibition): day 28 vs day 1; for Inhibitory effect on HT29 mouse subcutaneous xenograft tumor (in words): 80 mg/kg, comparison with AMG650
Experimental: Biological Example 4. In Vivo Pharmacodynamic Study-Mouse HT29 Subcutaneous Xenograft Tumor Model
BALB/c nude mice were inoculated subcutaneously with 5×10^6 HT29 cells on the left dorsal side. After the tumors grew to 100-150 mm^3, the mice were randomly divided into the following groups for intragastric administration once daily: group 1: vehicle control group; group 2: compound 661 (80 mg/kg); group 3: compound 669 (80 mg/kg); group 4: compound 677 (80 mg/kg); group 5: compound 714 (80 mg/kg); group 6: compound 727 (80 mg/kg); group 7: compound 740 (80 mg/kg); and group 8: AMG650 (80 mg/kg). The tumor volume was measured twice weekly and at the end of treatment.

| SMILES | IC50 [1] | EC50 [2] | IC50 [3] | IC50 [4] | Tumor volume on day 1 of treatment [5] | Tumor volume on day 28 of treatment [5] | TGI (tumor growth inhibition) [5] | Inhibitory effect on HT29 mouse subcutaneous xenograft tumor (in words) [5] |
| --- | --- | --- | --- | --- | --- | --- | --- | --- |
| COc1ccc(NC(=O)c2ccc(S(=O)(=O)NCCO)cc2N2CCC3(CC2)CC3)nc1N1CCC(F)(F)CC1 [Compound 273] | ≤ 0.1 µM | 0.0085 µM | – | – | – | – | – | – |
| COc1ccc(NC(=O)c2cnc(NS(=O)(=O)CCO)cc2N2CCC3(CC2)CC3)nc1N1CCC(F)(F)CC1 [Compound 289] | ≤ 0.1 µM | – | > 10 µM | 0.0277 µM | – | – | – | – |
| COc1ccc(NC(=O)c2cnc(S(=O)(=O)NCCO)cc2N2CCC3(CC2)CC3)nc1N1CCC(F)(F)CC1 [Compound 305] | ≤ 0.1 µM | – | > 10 µM | 0.0404 µM | – | – | – | – |
| COc1ccc(C(=O)Nc2ccc(NS(=O)(=O)CCO)cc2N2CCC3(CC2)CC3)nc1N1CCC(F)(F)CC1 [Compound 321] | ≤ 0.1 µM | 0.0158 µM | > 10 µM | 0.0593 µM | – | – | – | – |
| COc1ccc(C(=O)Nc2ccc(S(=O)(=O)NCCO)cc2N2CCC3(CC2)CC3)nc1N1CCC(F)(F)CC1 [Compound 337] | ≤ 0.1 µM | – | > 10 µM | 0.0488 µM | – | – | – | – |
| COc1ccc(C(=O)Nc2cnc(NS(=O)(=O)CCO)cc2N2CCC3(CC2)CC3)nc1N1CCC(F)(F)CC1 [Compound 353] | ≤ 0.1 µM | 0.0422 µM | > 10 µM | 0.0746 µM | – | – | – | – |
| O=C(Nc1ccc(OCF)c(N2CCC(F)(F)CC2)c1)c1ccc(NS(=O)(=O)CCO)cc1N1CCC2(CC1)CC2 [Compound 385] | ≤ 0.1 µM | – | > 10 µM | 0.146 µM | – | – | – | – |
| CSc1ccc(NC(=O)c2ccc(NS(=O)(=O)CCO)cc2N2CCC3(CC2)CC3)nc1N1CCC(F)(F)CC1 [Compound 593] | ≤ 0.1 µM | – | > 10 µM | 0.0979 µM | – | – | – | – |
| CNc1ccc(NC(=O)c2ccc(NS(=O)(=O)CCO)cc2N2CCC3(CC2)CC3)cc1N1CCC(F)(F)CC1 [Compound 641] | – | 0.0217 µM | > 10 µM | 0.0758 µM | – | – | – | – |
| CN(C)c1ccc(NC(=O)c2ccc(NS(=O)(=O)CCO)cc2N2CCC3(CC2)CC3)cc1N1CCC(F)(F)CC1 [Compound 645] | – | 0.0696 µM | > 10 µM | 0.0713 µM | – | – | – | – |
| COc1ccc(NC(=O)c2ccc(NS(=O)(=O)CCOC(=O)C(C)C)cc2N2CCC3(CC2)CC3)nc1N1CCC(F)(F)CC1 [Compound 663] | – | 0.0283 µM | > 10 µM | 0.035 µM | – | – | – | – |
| COc1ccc(C(=O)Nc2ccc(NS(=O)(=O)CCOC(C)=O)cc2N2CCC3(CC2)CC3)nc1N1CCC(F)(F)CC1 [Compound 669] | – | – | > 10 µM | 0.0258 µM | 121 mm^3 | 1158 mm^3 | 30% | – |
| COc1ccc(NC(=O)c2ccc(S(=O)(=O)NCCOC(C)=O)cc2N2CCC3(CC2)CC3)nc1N1CCC(F)(F)CC1 [Compound 677] | – | – | – | – | 121 mm^3 | 797 mm^3 | 55% | – |
| COc1ccc(NC(=O)c2ccc(NS(=O)(=O)CCOC(=O)[C@@H](N)C(C)C)cc2N2CCC3(CC2)CC3)nc1N1CCC(F)(F)CC1 [Compound 714] | – | 0.0392 µM | – | – | 121 mm^3 | 424 mm^3 | 80% | stronger inhibitory effects |
| COc1ccc(C(=O)Nc2ccc(NS(=O)(=O)CCOC(=O)[C@@H](N)C(C)C)cc2N2CCC3(CC2)CC3)nc1N1CCC(F)(F)CC1 [Compound 727] | – | – | – | – | 121 mm^3 | 519 mm^3 | 73% | stronger inhibitory effects |
| COc1ccc(NC(=O)c2ccc(S(=O)(=O)NCCOC(=O)[C@@H](N)C(C)C)cc2N2CCC3(CC2)CC3)nc1N1CCC(F)(F)CC1 [Compound 740] | – | – | – | – | 121 mm^3 | 605 mm^3 | 67% | stronger inhibitory effects |
